Source: ChEMBL document CHEMBL5550112, “Development of a fluorescent ligand that can illuminate nuclear G-quadruplexes and modulate oncogene expression” (Bioorg Med Chem, 2024)
Active and inactive are the calls of the source. No cut-off for these calls is given here.

Legend:
MDA-MB-231 [1] = assay: Induction of apoptosis in human MDA-MB-231 cells assessed as downregulation of KRAS protein expression at 10 to 20 uM incubated for 24 hrs by Western blot analysis; format: functional, cell-based; conditions: dose 10-20 µM
MDA-MB-231 [2] = assay: Induction of cell death in human MDA-MB-231 cells cultured as 3D tumor spheroids assessed as increase in red fluorescence intensity at 20 uM incubated for 7 days by propidium iodide staining based imaging analysis; format: functional; conditions: time 7.0 day
MDA-MB-231 [3] = assay: Induction of cell death in human MDA-MB-231 cells cultured as 3D tumor spheroids assessed as increase in red fluorescence intensity at 40 uM incubated for 7 days by propidium iodide staining based imaging analysis; format: functional; conditions: time 7.0 day
Quadruplex DNA [4] = assay: Binding affinity to Antiparallel ODN G-quadruplex DNA (unknown origin) assessed as increase in fluorescence intensity at 5 uM by fluorescence spectrophotometric analysis; format: nucleic-acid assay
Quadruplex DNA [5] = assay: Binding affinity to Parallel BCL2 G-quadruplex DNA (unknown origin) assessed as increase in fluorescence intensity at 5 uM by fluorescence spectrophotometric analysis; format: nucleic-acid assay
MDA-MB-231 [6] = assay: Induction of cell cycle arrest in human MDA-MB-231 cells assessed as accumulation of cells at S phase at 15 uM incubated for 24 hrs by flow cytometry (reference value: 13 %); format: functional
Quadruplex DNA [7] = assay: Binding affinity to Parallel KRAS G-quadruplex DNA (unknown origin) assessed as increase in fluorescence intensity at 5 uM by fluorescence spectrophotometric analysis; format: nucleic-acid assay
DNA [8] = assay: Binding affinity to Duplex DNA (unknown origin) assessed as increase in fluorescence intensity at 5 uM by fluorescence spectrophotometric analysis; format: nucleic-acid assay
DNA [9] = assay: Binding affinity to Duplex DNA (unknown origin) assessed as fluorescence quantum yield by fluorescence spectrophotometric analysis; format: nucleic-acid assay
Quadruplex DNA [10] = assay: Binding affinity to G-quadruplex DNA in human MDA-MB-231 cells assessed as increase in fluorescence at 2 uM incubated for 30 mins in presence of dimethyl sulfate by Hoechst 33342 staining based confocal microscopic analysis; format: cell-based
MDA-MB-231 [11] = assay: Induction of cell cycle arrest in human MDA-MB-231 cells assessed as accumulation of cells at G0-G1 phase at 15 uM incubated for 24 hrs by flow cytometry (reference value: 69.6 %); format: functional
HEK-293T = assay: Effect on KRAS gene expression in human HEK293T cells co-transfected with KRAS promoter luciferase reporter assessed as decrease in KRAS expression by measuring reduction in firefly luciferase expression at 10 to 20 uM incubated for 24 hrs by firefly luciferase based microplate analysis; format: functional, cell-based; conditions: dose 10-20 µM
MDA-MB-231 [12] = assay: Induction of cell cycle arrest in human MDA-MB-231 cells assessed as accumulation of cells at S phase at 10 uM incubated for 24 hrs by flow cytometry (reference value: 13 %); format: functional
Quadruplex DNA [13] = assay: Binding affinity to Parallel c-KIT2 G-quadruplex DNA (unknown origin) assessed as increase in fluorescence intensity at 5 uM by fluorescence spectrophotometric analysis; format: nucleic-acid assay
MDA-MB-231 [14] = assay: Induction of cell cycle arrest in human MDA-MB-231 cells assessed as accumulation of cells at S phase at 20 uM incubated for 24 hrs by flow cytometry (reference value: 13 %); format: functional
Quadruplex DNA [15] = assay: Binding affinity to 3'-Cy5-labelled c-MYC G-quadruplex DNA (unknown origin) assessed as dissociation constant by fluorescence quenching analysis; format: nucleic-acid assay
Quadruplex DNA [16] = assay: Binding affinity to Parallel EAD G-quadruplex DNA (unknown origin) assessed as increase in fluorescence intensity at 5 uM by fluorescence spectrophotometric analysis; format: nucleic-acid assay
Quadruplex DNA [17] = assay: Binding affinity to G-quadruplex DNA in human MDA-MB-231 cells assessed as increase in fluorescence at 2 uM incubated for 30 mins by DNase I digestion based confocal microscopic analysis; format: cell-based
MDA-MB-231 [18] = assay: Antiproliferative activity against human MDA-MB-231 cells cultured as 3D tumor spheroids assessed as inhibition of tumor volume incubated for 7 days; format: functional, cell-based; conditions: time 7.0 day
Quadruplex DNA [19] = assay: Binding affinity to Parallel CHL1 G-quadruplex DNA (unknown origin) assessed as increase in fluorescence intensity at 5 uM by fluorescence spectrophotometric analysis; format: nucleic-acid assay
MDA-MB-231 [20] = assay: Induction of apoptosis in human MDA-MB-231 cells assessed as downregulation of KRAS gene expression at 10 to 20 uM incubated for 24 hrs by RT-PCR analysis; format: functional, cell-based; conditions: dose 10-20 µM
MDA-MB-231 [21] = assay: Induction of cell cycle arrest in human MDA-MB-231 cells assessed as accumulation of cells at sub-G1 phase at 15 uM incubated for 24 hrs by flow cytometry (reference value: 0.6 %); format: functional
DNA [22] = assay: Binding affinity to Duplex DNA (unknown origin) assessed as increase in fluorescence by measuring red shift at 5 uM by fluorescence titration spectra analysis; format: nucleic-acid assay
DNA [23] = assay: Binding affinity to Duplex DNA (unknown origin) assessed as dissociation constant by fluorescence spectrophotometric analysis; format: nucleic-acid assay
MDA-MB-231 [24] = assay: Induction of cell cycle arrest in human MDA-MB-231 cells assessed as accumulation of cells at G2-M phase at 20 uM incubated for 24 hrs by flow cytometry (reference value: 16.8 %); format: functional
Quadruplex DNA [25] = assay: Binding affinity to Antiparallel c-KIT G-quadruplex DNA (unknown origin) assessed as increase in fluorescence intensity at 5 uM by fluorescence spectrophotometric analysis; format: nucleic-acid assay
MDA-MB-231 [26] = assay: Induction of apoptosis in human MDA-MB-231 cells assessed as downregulation of c-MYC gene expression at 10 to 20 uM incubated for 24 hrs by RT-PCR analysis; format: functional, cell-based; conditions: dose 10-20 µM
MDA-MB-231 [27] = assay: Induction of apoptosis in human MDA-MB-231 cells assessed as […] protein expression at 10 to 20 uM incubated for 24 hrs by Western blot analysis; format: functional, cell-based; conditions: dose 10-20 µM
MDA-MB-231 [28] = assay: Induction of cell cycle arrest in human MDA-MB-231 cells assessed as accumulation of cells at G0-G1 phase at 10 uM incubated for 24 hrs by flow cytometry (reference value: 69.6 %); format: functional
Quadruplex DNA [29] = assay: Binding affinity to KRAS G-quadruplex DNA (unknown origin) assessed as increase in fluorescence by measuring red shift at 5 uM by fluorescence titration spectra analysis; format: nucleic-acid assay
MDA-MB-231 [30] = assay: Induction of cell cycle arrest in human MDA-MB-231 cells assessed as accumulation of cells at G0-G1 phase at 20 uM incubated for 24 hrs by flow cytometry (reference value: 69.6 %); format: functional
Quadruplex DNA [31] = assay: Binding affinity to Parallel c-MYC G-quadruplex DNA (unknown origin) assessed as increase in fluorescence intensity at 5 uM by fluorescence spectrophotometric analysis; format: nucleic-acid assay
Quadruplex DNA [32] = assay: Binding affinity to 3'-Cy5-labelled c-MYC G-quadruplex DNA (unknown origin) assessed as decrease in Cy5 fluorescence upto 5 uM by fluorescence quenching analysis; format: nucleic-acid assay
MDA-MB-231 [33] = assay: Antiproliferative activity against human MDA-MB-231 cells assessed as inhibition of cell growth incubated for 24 hrs by CCK-8 assay; format: functional, cell-based; conditions: MDA-MB-231, 24 h
MDA-MB-231 [34] = assay: Induction of apoptosis in human MDA-MB-231 cells assessed as downregulation of c-MYC protein expression at 10 to 20 uM incubated for 24 hrs by Western blot analysis; format: functional, cell-based; conditions: dose 10-20 µM
Quadruplex DNA [35] = assay: Binding affinity to Parallel PS2M G-quadruplex DNA (unknown origin) assessed as increase in fluorescence intensity at 5 uM by fluorescence spectrophotometric analysis; format: nucleic-acid assay

CCn1c2ccccc2c2cc(/C=C/c3sc4ccccc4[n+]3C)ccc21.[I-]
Activity (MDA-MB-231 [1]): Active | Activity (MDA-MB-231 [2]): Active | Activity (MDA-MB-231 [3]): Active | Activity (Quadruplex DNA [4]): Active | Activity (Quadruplex DNA [5]): Active | Activity (MDA-MB-231 [6]): 10.2% | Activity (Quadruplex DNA [7]): Active | Activity (DNA [8]): inactive | Activity (DNA [9]): 0.03 | Activity (Quadruplex DNA [10]): inactive | Activity (MDA-MB-231 [11]): 47.2% | Activity (HEK-293T): Active | Activity (MDA-MB-231 [12]): 14.5% | Activity (Quadruplex DNA [13]): Active | Activity (MDA-MB-231 [14]): 8.6% | Kd (Quadruplex DNA [15]): 1000 nM | Activity (Quadruplex DNA [16]): Active | Activity (Quadruplex DNA [17]): inactive | Activity (MDA-MB-231 [18]): Dose-Dependent Effect | Activity (Quadruplex DNA [19]): Active | Activity (MDA-MB-231 [20]): Active | Activity (MDA-MB-231 [21]): 32.3% | Activity (DNA [22]): Active | Kd (DNA [23]): 5.3 µM | Activity (MDA-MB-231 [24]): 6.4% | Activity (Quadruplex DNA [25]): Active | Activity (MDA-MB-231 [26]): Active | Activity (MDA-MB-231 [27]): Active | Activity (MDA-MB-231 [28]): 66.5% | Activity (Quadruplex DNA [29]): Active | Activity (MDA-MB-231 [30]): 28.3% | Activity (Quadruplex DNA [31]): Active | Activity (Quadruplex DNA [32]): Active | IC50 (MDA-MB-231 [33]): 13.3 µM | Activity (MDA-MB-231 [34]): Active | Activity (Quadruplex DNA [35]): Active
